Experimental data reported in patent US20220313698A1, “MODULATORS OF CYSTIC FIBROSIS TRANSMEMBRANE CONDUCTANCE REGULATOR” (Vertex Pharmaceuticals Incorporated, priority 2019, published 2022).
pEC50: −log10 of the molar value.

Target: CFTR-mediated chloride transport (Homo sapiens, UniProt P13569)
Test: Corrector Assay A - membrane potential dye assay (enteroid cells)
Details: for Corrector Assay A % activity: % of chloride transport of triple combination control (1 μM (14S)-dispiro macrocycle + 3 μM tezacaftor + 300 nM ivacaftor); for pEC50: read-out: Corrector Assay A EC50, human intestinal enteroid cells, 18-24 h incubation, acute 10 μM forskolin + 300 nM ivacaftor

| SMILES | Corrector Assay A % activity | pEC50 |
| --- | --- | --- |
| CC(C)(C)c1ccc2c(n1)N1C[C@@H](CC[C@@H](c3cccc(N4CCCCC4)n3)Nc3cccc(n3)S(=O)(=O)NC2=O)CC1(C)C [Compound 173] | + (+ is <30%) | > 6.00 |
| CC(C)(C)c1ccc2c(n1)N1C[C@@H](CC[C@H](c3cccc(C(N)=O)n3)Nc3cccc(n3)S(=O)(=O)NC2=O)CC1(C)C [Compound 70, 6-[(14S,17R)-8-tert-butyl-12,12-dimethyl-2,2,4-trioxo-2λ^6-thia-3,9,11,18,23-pentaazatetracyclo[17.3.1.111,14.05,10]tetracosa-1(22),5,7,9,19(23),20-hexaen-17-yl]pyridine-2-carboxamide] | ++ (++ is 30-60%) | > 6.00 |
| CC(C)COc1cccc(-c2ccc3c(n2)N2C[C@@H](CC[C@H](c4ccccn4)Nc4cccc(n4)S(=O)(=O)NC3=O)CC2(C)C)n1 [Compound 315] | +++ (+++ is >60%) | > 6.00 |
| COC(=O)NCc1ccc(C2CC[C@@H]3CN(c4nc(C(C)(C)C)ccc4C(=O)NS(=O)(=O)c4cccc(n4)N2)C(C)(C)C3)nc1 (stereo partly drawn) [Compound 88] | +++ (+++ is >60%) | > 6.00 |
| CC(C)(C)c1ccc2c(n1)N1CC(CCC(C(C)(C)O)Nc3cccc(n3)S(=O)(=O)NC2=O)CC1(C)C (stereo not drawn) [Compound 13] | ++ (++ is 30-60%) | > 6.00 |
| CC(C)(C)NCc1ccnc([C@@H]2CC[C@@H]3CN(c4nc(C(C)(C)C)ccc4C(=O)NS(=O)(=O)c4cccc(n4)N2)C(C)(C)C3)c1 (single isomer, unassigned) [Compound 61] | +++ (+++ is >60%) | > 6.00 |
| C=CCC1CC[C@@H]2CN(c3nc(C(C)(C)C)ccc3C(=O)NS(=O)(=O)c3cccc(n3)N1)C(C)(C)C2 (single isomer, unassigned) [Compound 34] | +++ (+++ is >60%) | > 6.00 |
| CC(C)(C)c1ccc2c(n1)N1C[C@@H](CCC(C(C)(C)O)Nc3cccc(n3)S(=O)(=O)NC2=O)CC1(C)C (stereo partly drawn) [Compound 12, (14S)-8-tert-Butyl-17-(2-hydroxypropan-2-yl)-12,12-dimethyl-2λ^6-thia-3,9,11,18,23-pentaazatetracyclo[17.3.1.111,14.05,10]tetracosa-1(23),5(10),6,8,19,21-hexaene-2,2,4-trione] | +++ (+++ is >60%) | > 6.00 |
| CC(C)(C)c1ccc2c(n1)N1C[C@@H](CC[C@H](c3cccc(C#N)n3)Nc3cccc(n3)S(=O)(=O)NC2=O)CC1(C)C [Compound 211, 6-[(14S,17R)-8-tert-Butyl-12,12-dimethyl-2,2,4-trioxo-2λ^6-thia-3,9,11,18,23-pentaazatetracyclo[17.3.1.111,14.05,10]tetracosa-1(22),5,7,9,19(23),20-hexaen-17-yl]pyridine-2-carbonitrile] | +++ (+++ is >60%) | > 6.00 |
| CC(C)(C)c1ccc2c(n1)N1C[C@@H](CC[C@@H](c3cccc(C4=CCOCC4)n3)Nc3cccc(n3)S(=O)(=O)NC2=O)CC1(C)C [Compound 149] | + (+ is <30%) | > 6.00 |
| CC(=O)NCc1ccc(C2CC[C@@H]3CN(c4nc(C(C)(C)C)ccc4C(=O)NS(=O)(=O)c4cccc(n4)N2)C(C)(C)C3)nc1 (stereo partly drawn) [Compound 71] | ++ (++ is 30-60%) | > 6.00 |
| CC(C)N(C(=O)CCCC1CC[C@@H]2CN(c3nc(C(C)(C)C)ccc3C(=O)NS(=O)(=O)c3cccc(n3)N1)C(C)(C)C2)C(C)C (stereo partly drawn) [Compound 17, 4-[(14S)-8-tert-butyl-12,12-dimethyl-2,2,4-trioxo-2λ^6-thia-3,9,11,18,23-pentaazatetracyclo[17.3.1.111,14.05,10]tetracosa-1(23),5(10),6,8,19,21-hexaen-17-yl]-N,N-bis(propan-2-yl)butanamide] | +++ (+++ is >60%) | > 6.00 |
| CC(C)(C)c1ccc2c(n1)N1C[C@@H](CC[C@@H](C3CCN(CCC(F)(F)F)CC3)Nc3cccc(n3)S(=O)(=O)NC2=O)CC1(C)C (single isomer, unassigned) [Compound 239] | + (+ is <30%) | < 5.52 |
| CC1(C)C[C@@H]2CC[C@H](c3ccccn3)Nc3cccc(n3)S(=O)(=O)NC(=O)c3ccc(C4CCCCC4)nc3N1C2 [Compound 328] | +++ (+++ is >60%) | > 6.00 |
| C[C@@H](O)C[C@@H]1CC[C@@H]2CN(c3nc(C(C)(C)C)ccc3C(=O)NS(=O)(=O)c3cccc(n3)N1)C(C)(C)C2 (single isomer, unassigned) [Compound 28] | +++ (+++ is >60%) | > 6.00 |
| CC(C)(C)c1ccc2c(n1)N1C[C@@H](CCC(c3ccc(CCC(=O)O)cn3)Nc3cccc(n3)S(=O)(=O)NC2=O)CC1(C)C (stereo partly drawn) [Compound 97] | ++ (++ is 30-60%) | 5.52 to 6.00 |

| SMILES | Corrector Assay A % activity | pEC50 |
| --- | --- | --- |
| COCCc1ccc(C2CC[C@@H]3CN(c4nc(C(C)(C)C)ccc4C(=O)NS(=O)(=O)c4cccc(n4)N2)C(C)(C)C3)nc1 (stereo partly drawn) [Compound 112] | ++ (++ is 30-60%) | > 6.00 |
| Cn1nccc1C1CC[C@@H]2CN(c3nc(C(C)(C)C)ccc3C(=O)NS(=O)(=O)c3cccc(n3)N1)C(C)(C)C2 (single isomer, unassigned) [Compound 284] | ++ (++ is 30-60%) | > 6.00 |
| CC(=O)N1CCC([C@@H]2CC[C@@H]3CN(c4nc(C(C)(C)C)ccc4C(=O)NS(=O)(=O)c4cccc(n4)N2)C(C)(C)C3)CC1 (single isomer, unassigned) [Compound 229] | ++ (++ is 30-60%) | > 6.00 |
| CC(C)(C)c1ccc2c(n1)N1C[C@@H](CCC(c3ccc(N4CCCC4)cn3)Nc3cccc(n3)S(=O)(=O)NC2=O)CC1(C)C (stereo partly drawn) [Compound 164, (14S)-8-tert-butyl-12,12-dimethyl-17-[5-(pyrrolidin-1-yl)pyridin-2-yl]-2λ^6-thia-3,9,11,18,23-pentaazatetracyclo[17.3.1.111,14.05,10]tetracosa-1(23),5(10),6,8,19,21-hexaene-2,2,4-trione] | +++ (+++ is >60%) | > 6.00 |
| CC(C)(C)c1ccc2c(n1)N1CC(CCN(c3ccccc3)C(=O)c3cccc(c3)S(=O)(=O)NC2=O)CC1(C)C (single isomer, unassigned) [Compound 266, 8-tert-butyl-12,12-dimethyl-17-phenyl-2λ^6-thia-3,9,11,17-tetraazatetracyclo[17.3.1.111,14.05,10]tetracosa-1(22),5,7,9,19(23),20-hexaene-2,2,4,18-tetrone] | + (+ is <30%) |  |
| CC(C)(C)CCOc1cccc(-c2ccc3c(n2)N2C[C@@H](CC[C@H](c4ccccn4)Nc4cccc(n4)S(=O)(=O)NC3=O)CC2(C)C)n1 [Compound 310] | ++ (++ is 30-60%) | > 6.00 |
| CC(C)c1ccn(-c2ccc3c(n2)N2C[C@@H](CC[C@H](c4ccccn4)Nc4cccc(n4)S(=O)(=O)NC3=O)CC2(C)C)n1 [Compound 336] | +++ (+++ is >60%) | > 6.00 |
| CN1CCN(c2cccc([C@H]3CC[C@@H]4CN(c5nc(C(C)(C)C)ccc5C(=O)NS(=O)(=O)c5cccc(n5)N3)C(C)(C)C4)n2)CC1 [Compound 195, (14S,17R)-8-tert-butyl-12,12-dimethyl-17-[6-(4-methylpiperazin-1-yl)pyridin-2-yl]-2λ^6-thia-3,9,11,18,23-pentaazatetracyclo[17.3.1.111,14.05,10]tetracosa-1(22),5,7,9,19(23),20-hexaene-2,2,4-trione] | +++ (+++ is >60%) | > 6.00 |
| CC(C)(C)c1ccc2c(n1)N1C[C@@H](CCC(c3ccccc3)n3ccc(n3)S(=O)(=O)NC2=O)CC1(C)C (single isomer, unassigned) [Compound 275] | ++ (++ is 30-60%) | > 6.00 |
| CC(C)(C)c1ccc2c(n1)N1C[C@@H](CC[C@@H](c3ncccn3)Nc3cccc(n3)S(=O)(=O)NC2=O)CC1(C)C (single isomer, unassigned) [Compound 206] | +++ (+++ is >60%) | 5.52 to 6.00 |
| CC(O)CC1CC[C@@H]2CN(c3nc(C(C)(C)C)ccc3C(=O)NS(=O)(=O)c3cccc(n3)N1)C(C)(C)C2 (single isomer, unassigned) [Compound 22] | ++ (++ is 30-60%) | > 6.00 |
| CC(C)(C)c1ccc2c(n1)N1C[C@@H](CCC(c3ncccc3Cl)Nc3cccc(n3)S(=O)(=O)NC2=O)CC1(C)C (single isomer, unassigned) [Compound 65] | ++ (++ is 30-60%) | > 6.00 |
| CC(C)(C)c1ccnc(C2CC[C@@H]3CN(c4nc(C(C)(C)C)ncc4C(=O)NS(=O)(=O)c4cccc(n4)N2)C(C)(C)C3)c1 (single isomer, unassigned) [Compound 1] | + (+ is <30%) |  |
| Cn1ccc(C2CC[C@@H]3CN(c4nc(C(C)(C)C)ccc4C(=O)NS(=O)(=O)c4cccc(n4)N2)C(C)(C)C3)n1 (single isomer, unassigned) [Compound 279] | +++ (+++ is >60%) | > 6.00 |
| COCCN1CCC2(CC1)CC(NC(=O)[C@@H]1CC[C@@H]3CN(c4nc(C(C)(C)C)ccc4C(=O)NS(=O)(=O)c4cccc(n4)N1)C(C)(C)C3)C2 [Compound 221] | + (+ is <30%) | < 5.52 |
